# Results reported in patent US20240025856A1, “1,2,3,4-TETRAHYDROQUINOLINE DERIVATIVES AS INHIBITORS OF THE YAP/TAZ-TEAD ACTIVATION FOR TREATING CANCER” (KATHOLIEKE UNIVERSITEIT LEUVEN, priority 2020, published 2024).
# Test system: YAP/TAZ-TEAD transcription
# Assay: Reporter gene assay for measuring the inhibition of YAP/TAZ-TEAD transcription (TEAD-responsive element luciferase reporter in Hek293T cells)
# Type: cell-based
# Conditions: Hek293T cells transiently transfected with TEAD-responsive element luciferase reporter; 24 hours incubation
# Method: Hek293T cells are cultured in DMEM supplemented with 10% fetal bovine serum, Sodium pyruvate, Sodium bicarbonate, L-glutamine. The cells are harvested and transiently transfected with TEAD-responsive element luciferase reporter. Transfected cells are plated in 384-wells plate containing pre-diluted compounds. After 24 hours incubation at 37° C./5% CO2, assay plates were cooled down to RT and levelled to an equal volume per well, prior to the addition of 25 uL luciferase substrate SteadyLite (Perkin Elmer)/well. The plate was shaken for 10 min at 600 rpm, centrifuged for 1 min at 500 rpm and measured with an Envision reader (PerkinElmer). The amount of relative light units produced by the TEAD reporter is used to calculated percent of inhibition. The percent of reporter inhibition was calculated in the presence of a positive control inhibitor (100% inhibition) versus a condition with the presence of the vehicle basal activity of the reporter (0% inhibition). The ability of a test compound to inhibit this activity was determined as: Percentage inhibition=[[…]((RLU determined in the presence of vehicle−RLU determined for sample with test compound present) divided by (RLU determined in the presence of vehicle−RLU determined for sample with positive control inhibitor))]*100
# The activities of example compounds tested are depicted in the table below. The activity ranges A, B and C refer to IC50 values in the reporter gene assay as follows: “A”: IC50<1 μM; “B”: 1 μM≤IC50≤20 μM and “C”: IC50>20 μM; NT=not tested.
row,IC50,SMILES
1,> 20000 nM,"FC(F)(F)c1ccc(N2CC(C3CC(Br)=NO3)Cc3ccccc32)cc1 (single isomer, unassigned) [Cpd. No. 194(Dia1)-En2, 3-bromo-5-(1-(4-(trifluoromethyl)phenyl)-1,2,3,4-tetrahydroquinolin-3-yl)-4,5-dihydroisoxazole]"
2,1000 to 20000 nM,"FC(F)(F)c1ccc(N2CC(C3CC(Br)=NO3)Cc3ccccc32)cc1 (single isomer, unassigned) [Cpd. No. 194(Dia2)-En1, 3-bromo-5-(1-(4-(trifluoromethyl)phenyl)-1,2,3,4-tetrahydroquinolin-3-yl)-4,5-dihydroisoxazole]"
3,< 1000 nM,"FC(F)(F)c1ccc(N2CC(C3CC(Br)=NO3)Cc3ccccc32)cc1 (single isomer, unassigned) [Cpd. No. 194(Dia2)-En2, 3-bromo-5-(1-(4-(trifluoromethyl)phenyl)-1,2,3,4-tetrahydroquinolin-3-yl)-4,5-dihydroisoxazole]"

# More lines, now with the values behind:
row,SMILES,IC50
1,"OCCNC1Cc2ccccc2N(c2ccc(C(F)(F)F)cc2)C1 (single isomer, unassigned) [043-En1, (R)- or (S)-2-((1-(4-(trifluoromethyl)phenyl)-1,2,3,4-tetrahydroquinolin-3-yl)amino)ethan-1-ol]",1000 to 20000 nM
2,"OCCNC1Cc2ccccc2N(c2ccc(C(F)(F)F)cc2)C1 (single isomer, unassigned) [043-En2, (R)- or (S)-2-((1-(4-(trifluoromethyl)phenyl)-1,2,3,4-tetrahydroquinolin-3-yl)amino)ethan-1-ol]",< 1000 nM
3,"OCCCNC1Cc2ccccc2N(c2ccc(C(F)(F)F)cc2)C1 (single isomer, unassigned) [045-En1, (R)- or (S)-3-((1-(4-(trifluoromethyl)phenyl)-1,2,3,4-tetrahydroquinolin-3-yl)amino)propan-1-ol]",1000 to 20000 nM
4,"OCCCNC1Cc2ccccc2N(c2ccc(C(F)(F)F)cc2)C1 (single isomer, unassigned) [045-En2, (R)- or (S)-3-((1-(4-(trifluoromethyl)phenyl)-1,2,3,4-tetrahydroquinolin-3-yl)amino)propan-1-ol]",1000 to 20000 nM
5,"C=CC(=O)NCC1Cc2c(C(=O)NS(C)(=O)=O)cccc2N(c2ccc(C(F)(F)F)cc2)C1 (single isomer, unassigned) [157-En1, (R)- or (S)-3-(acrylamidomethyl)-N-(methylsulfonyl)-1-(4-(trifluoromethyl)phenyl)-1,2,3,4-tetrahydroquinoline-5-carboxamide]",> 20000 nM
6,"C=CC(=O)NCC1Cc2c(CC(=O)O)cccc2N(c2ccc(C(F)(F)F)cc2)C1 (centres unmarked) [Cpd. No. 161, 2-(3-(acrylamidomethyl)-1-(4-(trifluoromethyl)phenyl)-1,2,3,4-tetrahydroquinolin-5-yl)acetic acid]",1000 to 20000 nM
7,"C=CC(=O)NCC1Cc2c(CC(=O)O)cccc2N(c2ccc(C(F)(F)F)cc2)C1 (centres unmarked) [Cpd. No. 161-En1, 2-(3-(acrylamidomethyl)-1-(4-(trifluoromethyl)phenyl)-1,2,3,4-tetrahydroquinolin-5-yl)acetic acid]",> 20000 nM
8,"C=CC(=O)NCC1Cc2c(CC(=O)O)cccc2N(c2ccc(C(F)(F)F)cc2)C1 (centres unmarked) [Cpd. No. 161-En2, 2-(3-(acrylamidomethyl)-1-(4-(trifluoromethyl)phenyl)-1,2,3,4-tetrahydroquinolin-5-yl)acetic acid]",1000 to 20000 nM
9,"C=CC(=O)NCC1Cc2c(Cc3noc(=O)[nH]3)cccc2N(c2ccc(C(F)(F)F)cc2)C1 (centres unmarked) [Cpd. No. 168-En1, N-((5-((5-oxo-4,5-dihydro-1,2,4-oxadiazol-3-yl)methyl)-1-(4-(trifluoromethyl)phenyl)-1,2,3,4-tetrahydroquinolin-3-yl)methyl)acrylamide]",1000 to 20000 nM
10,"C=CC(=O)NCC1Cc2c(Cc3noc(=O)[nH]3)cccc2N(c2ccc(C(F)(F)F)cc2)C1 (centres unmarked) [Cpd. No. 168-En2, N-((5-((5-oxo-4,5-dihydro-1,2,4-oxadiazol-3-yl)methyl)-1-(4-(trifluoromethyl)phenyl)-1,2,3,4-tetrahydroquinolin-3-yl)methyl)acrylamide]",< 1000 nM

# Same assay, conditions: Homo sapiens, HEK-293T, 24 h, Hek293T cells transiently transfected with TEAD-responsive element luciferase reporter; 24 hours incubation
row,IC50,SMILES
1,> 20000 nM,"C=CC(=O)NC1Cc2ccccc2N(C(=O)C2CCCCC2)C1 (centres unmarked) [Cpd. No. 173, N-(1-(cyclohexanecarbonyl)-1,2,3,4-tetrahydroquinolin-3-yl)acrylamide]"
2,< 1000 nM,"C=CC(=O)NC1Cc2ccccc2N(Cc2ccccc2)C1 (centres unmarked) [Cpd. No. 174, N-(1-benzyl-1,2,3,4-tetrahydroquinolin-3-yl)acrylamide]"
3,< 1000 nM,"C=CC(=O)NC1Cc2ccccc2N(CC2CCCCC2)C1 (centres unmarked) [Cpd. No. 175, N-(1-(cyclohexylmethyl)-1,2,3,4-tetrahydroquinolin-3-yl)acrylamide]"
4,< 1000 nM,"C=CC(=O)NCC1CCc2ccccc2N1c1ccc(C(F)(F)F)cc1 (centres unmarked) [Cpd. No. 178, N-((1-(4-(trifluoromethyl)phenyl)-1,2,3,4-tetrahydroquinolin-2-yl)methyl)acrylamide]"
5,< 1000 nM,"CC(=O)NC/C=C/C(=O)NCC1Cc2ccccc2N(c2ccc(C(F)(F)F)cc2)C1 (centres unmarked) [Cpd. No. 193, (E)-4-acetamido-N-((1-(4-(trifluoromethyl)phenyl)-1,2,3,4-tetrahydroquinolin-3-yl)methyl)but-2-enamide]"
6,< 1000 nM,"C=CC(=O)NC1Cc2ccccc2N(c2ccccc2)C1 (centres unmarked) [compound 002, N-(1-phenyl-1,2,3,4-tetrahydroquinolin-3-yl)acrylamide]"
7,< 1000 nM,"C=CC(=O)NC1Cc2ccccc2N(c2cccc(C(F)(F)F)c2)C1 (centres unmarked) [compound 003, N-(1-(3-(trifluoromethyl)phenyl)-1,2,3,4-tetrahydroquinolin-3-yl)acrylamide]"
8,< 1000 nM,"C=CC(=O)NC1Cc2ccccc2N(c2ccc(C(C)C)cc2)C1 (centres unmarked) [compound 004, N-(1-(4-isopropylphenyl)-1,2,3,4-tetrahydroquinolin-3-yl)acrylamide]"
9,< 1000 nM,"C=CC(=O)NC1Cc2ccccc2N(c2cccc(C(C)C)c2)C1 (centres unmarked) [compound 005, N-(1-(3-isopropylphenyl)-1,2,3,4-tetrahydroquinolin-3-yl)acrylamide]"
10,< 1000 nM,"C=CC(=O)NC1Cc2ccccc2N(c2cccc(OC)c2)C1 (centres unmarked) [compound 006, N-(1-(3-methoxyphenyl)-1,2,3,4-tetrahydroquinolin-3-yl)acrylamide]"
11,< 1000 nM,"C=CC(=O)NC1Cc2ccccc2N(c2ccc(OC)cc2)C1 (centres unmarked) [compound 007, N-(1-(4-methoxyphenyl)-1,2,3,4-tetrahydroquinolin-3-yl)acrylamide]"
12,< 1000 nM,"C=CC(=O)NC1Cc2ccccc2N(c2ccc(-c3ccccc3)cc2)C1 (centres unmarked) [compound 008, N-(1-([1,1′-biphenyl]-4-yl)-1,2,3,4-tetrahydroquinolin-3-yl)acrylamide]"
13,1000 to 20000 nM,"C=CC(=O)NC1Cc2ccccc2N(c2cccc(-c3ccccc3)c2)C1 (centres unmarked) [compound 009, N-(1-([1,1′-biphenyl]-3-yl)-1,2,3,4-tetrahydroquinolin-3-yl)acrylamide]"

# More lines, now with the values behind:
row,SMILES,IC50
1,"C=CC(=O)NC1Cc2ccccc2N(c2ccc(C(F)(F)F)cc2)C1 (single isomer, unassigned) [001-En1]",< 1000 nM
2,"C=CC(=O)NCC1Cc2ccccc2N(c2ccc(C(F)(F)F)cc2)C1 (single isomer, unassigned) [084-En2, N-((1-(4-(trifluoromethyl)phenyl)-1,2,3,4-tetrahydroquinolin-3-yl)methyl)acrylamide]",< 1000 nM
3,"NCC1Cc2ccccc2N(c2ccc(C(F)(F)F)cc2)C1 (centres unmarked) [170 (Int-10), (1-(4-(trifluoromethyl)phenyl)-1,2,3,4-tetrahydroquinolin-3-yl)methanamine]",1000 to 20000 nM
4,"NC1Cc2ccccc2N(c2ccc(C(F)(F)F)cc2)C1 (centres unmarked) [171 (Int-3), 1-(4-(trifluoromethyl)phenyl)-1,2,3,4-tetrahydroquinolin-3-amine]",1000 to 20000 nM
5,"C=CC(=O)NC1Cc2nc(OC)ccc2N(c2ccc(C(F)(F)F)cc2)C1 (centres unmarked) [Cpd. No. 141, N-(6-methoxy-1-(4-(trifluoromethyl)phenyl)-1,2,3,4-tetrahydro-1,5-naphthyridin-3-yl)acrylamide]",< 1000 nM
6,"C=CC(=O)NCC1Cc2c(C(=O)O)cccc2N(c2ccc(C(F)(F)F)cc2)C1 (centres unmarked) [Cpd. No. 156, 3-(acrylamidomethyl)-1-(4-(trifluoromethyl)phenyl)-1,2,3,4-tetrahydroquinoline-5-carboxylic acid]",> 20000 nM
7,"C=CC(=O)NCC1Cc2c(C(=O)NS(=O)(=O)C3CC3)cccc2N(c2ccc(C(F)(F)F)cc2)C1 (centres unmarked) [Cpd. No. 158, 3-(acrylamidomethyl)—N-(cyclopropylsulfonyl)-1-(4-(trifluoromethyl)phenyl)-1,2,3,4-tetrahydroquinoline-5-carboxamide]",> 20000 nM
8,"C=CC(=O)NCC1Cc2c(Cc3noc(=O)[nH]3)cccc2N(c2ccc(C(F)(F)F)cc2)C1 (centres unmarked) [Cpd. No. 168, N-((5-((5-oxo-4,5-dihydro-1,2,4-oxadiazol-3-yl)methyl)-1-(4-(trifluoromethyl)phenyl)-1,2,3,4-tetrahydroquinolin-3-yl)methyl)acrylamide]",< 1000 nM
9,"C=CC(=O)NC1Cc2c(C(=O)NC#N)cccc2N(c2ccc(C(F)(F)F)cc2)C1 (centres unmarked) [Cpd. No. 169, 3-acrylamido-N-cyano-1-(4-(trifluoromethyl)phenyl)-1,2,3,4-tetrahydroquinoline-5-carboxamide]",> 20000 nM
